Results from patent US8394816B2, “Methods of using [3.2.0] heterocyclic compounds and analogs thereof in treating Waldenstrom's Macroglobulinemia” (priority 2007, dated 2013).

Key:
BCWM.1 cells [1] = format: cell-based; conditions: for caspases-3, 8 and 9 cleavage: each agent 10 nM
From the text: To further dissect whether apoptosis is mediated through the intrinsic or extrinsic pathways, the effect of salinosporamide A, bortezomib and the combination on caspases-3, 8 and 9 was investigated.

Akt = test: In vitro Akt kinase assay; format: cell-based; conditions: each agent 10 nM
From the text: FIG. 4B is a picture showing In vitro Akt kinase assay. […] Whole cell lysates were immunoprecipitated with anti-Akt antibody. Then the immunoprecipitate was washed and subjected to in vitro kinase assay according to manufacturer's protocol. Western blotting used anti-p-GSK3α/β and anti-Akt antibodies.

[2] = system: caspase-like (C-L) activity of the 20S proteasome; test: 20S proteasome caspase-like activity in treated cells; format: cell-based; conditions: each agent 10 nM, 4 hours
BCWM.1 cells [3] = test: IL-6-induced proliferation, thymidine uptake; format: cell-based; conditions: salinosporamide A 2.5-20 nM, bortezomib 10 nM, IL-6 25 ng/mL
Method: Proliferation was assessed by thymidine uptake assay.
(§1) The effect of the two proteasome inhibitors on cytotoxicity of WM cells in the presence of IL-6 was also investigated. […] Whether the two proteasome inhibitors, used as single agent or in combination, could also target non-malignant hematopoietic cells was investigated.

[4] = system: Akt and STAT-3 phosphorylation; test: IL-6-triggered Akt and STAT-3 phosphorylation, western blotting; format: cell-based; conditions: each agent 10 nM, 8 hours; IL-6 25 ng/mL 10 minutes
Method: Cells were then stimulated with IL-6 (25 ng/mL) for 10 minutes.
as §1

[5] = system: BCWM.1 cells homing to the bone marrow; format: in vivo, BALB/c mice; conditions: single agents, cells pretreated; data not shown
Method: FIG. 6D is a graph showing in vivo flow cytometry. DiI-labeled treated cells and DiR-labeled untreated cells were injected in the tail vein of 2 BALB/c mice. Cells were counted every 5 min for 45 minutes as described in Material and Methods.
DI-labeled BCWM.1 cells treated with salinosporamide A (10 nM, 4 hours), alone or in combination with bortezomib (5 nM), or DiR-labeled untreated BCWM.1 cells used as control were injected in the tail vein of BALB/c mice, followed by in vivo flow cytometry every 5 minutes for 45 minutes after injection.

WM = conditions: single agent, phase I trials; cited from earlier work
[6] = system: trypsin-like (T-L) activity of the 20S proteasome; test: 20S proteasome trypsin-like activity in treated cells; conditions: 10 nM, 4 hours
[7] = system: chymotrypsin-like (CT-L) activity of the 20S proteasome; test: 20S proteasome chymotrypsin-like activity in treated cells; conditions: 10 nM, 4 hours
[8] = system: p65 phosphorylation and p50NF-κB expression; test: Fibronectin-induced NF-κB activity, western blotting of nuclear extracts; conditions: each agent 10 nM, 4 hours
From the text: Nuclear extracts were subjected to western blotting using anti-p-p65, -p50, and -nucleolin antibodies.

Stability in solution = format: physicochemical; conditions: converted to compound VI-1B, mixture 7:3
Method: The compound of Formula I-16 (15 mg, 0.048 mmol) was dissolved in 1:1 ratio of ACN/DMSO (8 ml) in a scintillation vial (20 ml) to which triethylamine (40 μl, 0.29 mmol), Glutathione (44.2 mg, 0.144 mmol) and a magnetic stir bar were added. The reaction mixture was stirred at room temperature for about 3 hours. The solvent was evaporated from the reaction mixture to yield the compound of Formula I-48, which was purified by reversed phase HPLC using Ace 5u C18 column (150 mm×22 mm ID) with a solvent gradient of 10% to 70% H2O/Acetonitrile over 15 min, 70 to 100% Acetonitrile over 5 min, holding at 100% Acetonitrile for 4 min, at a flow rate of 14.5 ml/min. Diode array detector was used to monitor the purification process. Compound I-48 (10 mg) eluted as a pure compound at 8.255 min. Compound I-48: UV (Acetonitrile/H2O) λmax 235 (sh) nm; ESMS m/z 621.0 (M+H)^+. […] Compound VI-1B: UV (Acetonitrile/H2O) λmax 235 (sh) nm; ESMS, m/z 585.2 (M+H)^+.

BCWM.1 cells [9] = test: [3H]-thymidine uptake proliferation assay; format: cell-based; conditions: BCWM1; BCWM.1, 48 hours; read-out: IC50, inhibition of proliferation ([3H]-thymidine uptake)
Method: (§2) FIG. 1A is a graph showing thymidine uptake assay and cytotoxicity assessed by MTT. BCWM.1 cells were cultured with salinosporamide A (2.5-40 nM) for 48 hours.
WM and IgM-secreting cell lines were cultured for 48 hours in the presence of salinosporamide A (Formula I-16) (2.5-40 nM).

WM-WSU, MEC-1, Namalwa [10] = test: [3H]-thymidine uptake assay, IgM-secreting cell lines; format: cell-based; conditions: Homo sapiens, MEC1, 48 hours, read-out: IC50, [3H]-thymidine uptake, all cell lines tested
Method: FIG. 1B is a graph showing thymidine uptake assay.
WM and IgM-secreting cell lines were cultured for 48 hours in the presence of salinosporamide A (Formula I-16) (2.5-40 nM). […]

BCWM.1 cells [11] = test: cells
Method: as §2
FIG. 2A is a graph showing BCWM.1 cells cultured with salinosporamide A (2.5, 5 and 10 nM) for 48 hours, in the presence or absence of bortezomib (5 and 10 nM). Cytotoxicity was assessed by MTT assay.
All experiments were repeated in triplicate.

WM-WSU, MEC-1, Namalwa [12] = test: MTT cytotoxicity assay, other IgM-secreting cell lines; format: cell-based; conditions: Homo sapiens, MEC1; 48 hours
[13] = system: primary CD19+ cells isolated from three patients with WM; test: tissue or blood; conditions: Homo sapiens, read-out: IC50, cytotoxicity in primary CD19+ cells (MTT)
Method: FIG. 1D is a graph showing freshly isolated bone marrow CD19^+ tumor cells from 3 patients with WM were cultured with salinosporamide A (2.5-40 nM [E]; 2.5-80 nM [F]). Cytotoxicity was assessed by MTT assay.

BCWM.1 cells [14] = test: Apo2.7 staining apoptosis, flow cytometry; format: cell-based; conditions: 48 hours, untreated 5%
Method: FIG. 1E is a graph showing BCWM. 1 cultured with salinosporamide A for 48 hours at doses that range from 2 to 30 nM and the percentage of cells undergoing apoptosis was studied by Apo2.7 staining.
The molecular mechanisms whereby salinosporamide A induces cytotoxicity in WM cells was examined.

NF-κBp65 = NF-κBp65 DNA binding activity (Active Motif assay), TNF-α stimulated; format: cell-based; conditions: each agent 10 nM, 4 hours; TNF-α 10 ng/mL last 20 minutes
Method: FIG. 3A is a graph showing BCWM.1 cells cultured with either salinosporamide A (10 nM), bortezomib (10 nM), or the combination for 4 hours, then human TNF-α (10 ng/mL) was added for the last 20 minutes. NF-κBp65 transcription factor-binding to its consensus sequence on the plate-bound oligonucleotide was studied from nuclear extract. Wild type and mutant are wild type and mutated consensus competitor oligonucleotides, respectively. All results represent means (±sd) of triplicate experiments.
The effect of salinosporamide A either alone or in combination with bortezomib on the NF-κBp65 DNA binding activity was investigated, studying nuclear extracts from treated cells using the Active Motif assay. […] Phospho-p65 translocation from the cytoplasmic compartment to the nucleus was inhibited by the combination of bortezomib and salinosporamide A, resulting in a significant increase in p-p65 expression in the cytoplasmic compartment as shown by immunofluorescence (FIG. 3D).

[15] = system: BCWM.1 cells adherent to BMSCs; test: [3H]-TdR uptake in co-culture with BMSCs; format: cell-based; conditions: salinosporamide A 2.5-20 nM, bortezomib 10 nM, 48 hours
Method: Whether salinosporamide A, alone or in combination with bortezomib, inhibits WM cells growth in the context of the BM milieu was investigated. BCWM.1 cells were cultured with salinosporamide A (2.5-20 nM) and/or bortezomib (10 nM) in the presence or absence of BMSCs, for 48 hours.

[16] = system: BM hematopoietic progenitor cells; test: Colony-forming cell assay; conditions: salinosporamide A 10 nM, 20 nM; bortezomib 10 nM; day 14
From the text: FIG. 5D is a graph showing colony-forming cell assay. […] All experiments have been done in triplicate.
as §1

BCWM.1 cells [17] = test: Transwell migration assay towards SDF-1; format: cell-based; conditions: each agent 10 nM, 4 hours; SDF-1 30 nM
From the text: Cells were then subjected to migration as previously described in Alsayed Y, Ngo H, Runnels J., et al. Mechanisms of regulation of CXCR4/SDF-1 (CXCL12)-dependent migration and homing in multiple myeloma. Blood.

[18] = system: PBMCs from 3 healthy volunteers
[19] = system: Akt knockdown BCWM.1 cell line; test: MTT cytotoxicity in Akt knockdown cell line; conditions: 2.5-20 nM, 48 hours
Method: BCWM.1 transfected cells or BCWM.1 control cells were treated with salinosporamide A (2.5-20 nM) for 48 hours. Cytotoxicity was assessed by MTT assay.

[20] = system: PI3K/Akt signaling pathway in BCWM.1 cells; test: Western blotting of PI3K/Akt signaling pathway; conditions: 2.5-20 nM, 6 hours
From the text: Whole cell lysate were subjected to Western blotting using anti-p-Akt, -Akt, -p-GSK3α/β, -p-S6R, -p-ERK, and -α-tubulin antibodies.

## CC(C)C[C@H](NC(=O)[C@H](Cc1ccccc1)NC(=O)c1cnccn1)B(O)O [bortezomib, Bortezomib, reference compound]
BCWM.1 cells [1]; 12 hours
  caspases-3, 8 and 9 cleavage: induced-9 and -3 cleavage
Akt
  Akt kinase activity (phosphorylation of GSK3α/β fusion protein): did not modulate Akt phosphorylation
[2]
  reduction of the C-L activity: 29%
BCWM.1 cells [3]
  IL-6-induced proliferation of BCWM.1 cells: inhibited IL-6-induced proliferation of BCWM.1 cells
[4]
  IL-6-triggered Akt and STAT-3 phosphorylation: inhibited IL-6-triggered Akt and STAT-3 phosphorylation
[5]
  homing of WM cells to the bone marrow: Neither salinosporamide A nor bortezomib used as single agents significantly inhibited homing
WM
  responses in WM: 40-80%
[6]
  reduction of the T-L activity: 5%
[7]
  reduction of the CT-L activity: 69%
[8]
  FN-induced p65 phosphorylation and p50NF-κB expression: inhibited

## C[C@]1(O)[C@@H](CCCl)C(=O)N[C@]1(C(=O)SCC(NC(=O)CCC(N)C(=O)O)C(=O)NCC(=O)O)[C@@H](O)[C@@H]1C=CCCC1 (some centres unmarked) [Compound I-48]
Stability in solution
  stability in solution: unstable in solution

## C[C@@]12OC(=O)[C@]1([C@@H](O)[C@@H]1C=CCCC1)NC(=O)[C@@H]2CCCl [salinosporamide A]
BCWM.1 cells [9]
  IC50: 15 nM
WM-WSU, MEC-1, Namalwa [10]
  IC50: 20 to 30 nM
BCWM.1 cells [11]; BCWM1, 48 h, read-out: IC50, decreased survival (MTT)
  IC50: 18 nM
BCWM.1 cells [11]; human
  cytotoxicity, % of BCWM.1 cells (MTT): 12.4%
WM-WSU, MEC-1, Namalwa [12]
  IC50: 30 to 40 nM
[13]
  IC50: 20 to 30 nM
BCWM.1 cells [14]; 5 nM
  percentage of apoptotic BCWM.1 cells: 21.2%
BCWM.1 cells [14]; 20 nM
  percentage of apoptotic BCWM.1 cells: 40%
BCWM.1 cells [1]; 2.5-20 nM, 12 hours
  Mcl-1 expression: induced down-modulation of the anti-apoptotic protein Mcl-1
  XIAP expression: down-regulated the expression of XIAP in a dose-dependent manner
  caspase-8 and PARP cleavage: induced caspase-8 and PARP cleavage in a dose-dependent manner
BCWM.1 cells [1]; 2.5-20 nM, data not shown
  caspase-3 and -9: without affecting caspase-3 and -9
BCWM.1 cells [1]; 12 hours
  caspases-3, 8 and 9 cleavage: induced mild capsase-8 cleavage without affecting caspase-3 and 9 cleavage
NF-κBp65
  TNF-α induced NF-κB recruitment to the nucleus (NF-κBp65 DNA binding): inhibited by salinosporamide A more than bortezomib
Akt
  Akt kinase activity (phosphorylation of GSK3α/β fusion protein): decreased phosphorylation of GSK3α/β fusion protein
[2]
  reduction of the C-L activity: 34.3%
[15]
  BMSC-triggered increase in proliferation of BCWM.1 cells: inhibited by salinosporamide A in a dose-dependent manner
BCWM.1 cells [3]
  IL-6-induced proliferation of BCWM.1 cells: inhibited IL-6-induced proliferation of BCWM.1 cells
[4]
  IL-6-triggered Akt and STAT-3 phosphorylation: inhibited IL-6-triggered Akt and STAT-3 phosphorylation
[16]
  growth of BM hematopoietic progenitor cells (colony formation): did not affect the growth of BM hematopoietic progenitor cells
BCWM.1 cells [17]
  WM cells migration towards SDF-1: slightly inhibited
[5]
  homing of WM cells to the bone marrow: Neither salinosporamide A nor bortezomib used as single agents significantly inhibited homing
[18]
  cytotoxic effect on PBMCs: no cytotoxic effect
BMSCs
  viability of BMSCs (MTT): not affected
[19]
  cytotoxic effect in the absence of Akt: abrogated
[20]
  phosphorylation of Akt (ser473), GSK3α/β and ribosomal protein S6: inhibited phosphorylation of Akt (ser473), and downstream GSK3α/β and ribosomal protein S6 in a dose dependent manner
  phosphorylation of ERK1/2 (thr202/tyr204): no activity on the phosphorylation of the MAP kinase ERK1/2
[6]
  reduction of the T-L activity: 38.7%
[7]
  reduction of the CT-L activity: 81%
[8]
  FN-induced p65 phosphorylation and p50NF-κB expression: inhibited
